Assay results reported in patent publication EP0433662A2, “Acat inhibitors” (WARNER-LAMBERT COMPANY, priority 1989, dated 1991).

Assays:
[1] = molecular target: acyl-CoA: cholesterol acyltransferase (ACAT); assay: In vitro ACAT inhibition: radiolabeled cholesterol oleate formed from radiolabeled oleic acid in rabbit intestinal microsomes; format: biochemical; conditions: tissue preparation containing rabbit intestinal microsomes; concentration required to inhibit the activity of the enzyme by 50%
Method: The ability of representative compounds of the present invention to inhibit ACAT was measured using an in vitro test more fully described in F. J. Field and R. G. Salone, Biochemica et Biophysica 712:557-570 (1982). The test assesses the ability of a test compound to inhibit the acylation of cholesterol by oleic acid by measuring the amount of radiolabeled cholesterol oleate formed from radiolabeled oleic acid in a tissue preparation containing rabbit intestinal microsomes.
The data appear in Table 1 where they are expressed as ICso values; i.e., the concentration of test compound required to inhibit the activity of the enzyme by 50%.

[2] = test system: male Sprague-Dawley rats; assay: In vivo screen APCC: blood cholesterol in rats fed PCC diet overnight; conditions: blood cholesterol versus vehicle (CMC/Tween); dosed at 4 PM, PCC diet with 1 % or 0.5% cholic acid overnight, sacrificed at 8 AM; dose not given
From the text: In one in vivo screen designated APCC, male Sprague-Dawley rats (200 to 225 g) were randomly divided into treatment groups and dosed at 4 PM with either vehicle (CMC/Tween) or suspensions of compounds in vehicle. The normal chow diet was then replaced with the PCC diet with either 1 % or 0.5% cholic acid, as indicated. The rats consumed this diet ad libitum during the night and were sacrificed at 8 AM to obtain blood samples for cholesterol analysis using standard procedures. Statistical differences between mean cholesterol values for the same vehicle were determined using analysis of variance followed by Fisher's least significant test.

SMILES | IC50 [1] [nM] | % Change (mg/dl) [2]
CC(C)c1cccc(C(C)C)c1NC(=O)CC(=O)NCC(c1ccccc1)c1ccccc1 [N-[2,6-Bis(1-methylethyl)phenyl]-N'-(2,2-diphenylethyl)propanediamide] | 770 | –
CC(C)c1cccc(C(C)C)c1NC(=O)CC(=O)NC(c1ccccc1)c1ccccc1 [N-[2,6-bis(1-methylethyl)-phenyl-N'-(diphenylmethyl)-propanediamide] | 490 | -20%
CC(C)c1cccc(C(C)C)c1NC(=O)CC(=O)NCC1(c2ccccc2)CCCC1 [N-[2,6-bis(1-methylethyl)-phenyl]-N'-(1-phenylcyclo-pentyl)methylpropanediamide] | 990 | +7%

Further lines, with some results ahead:

IC50 [1] [nM] | SMILES | % Change (mg/dl) [2]
13 | CC(C)c1cccc(C(C)C)c1NC(=O)CC(=O)N(Cc1ccccc1)Cc1ccccc1 [N'-[2,6-bis(1-methylethyl)-phenyl]-N,N-bis(phenylmethyl)-propanediamide] | -42%
20 | CC(C)c1cccc(C(C)C)c1NC(=O)CC(=O)N(C(C)C)C(c1ccccc1)c1ccccc1 [N'-[2,6-bis(1-methylethyl)-phenyl]-N-(diphenylmethyl)-N-(1-methylethyl)propanediamide] | -41%
